ChEMBL document CHEMBL1821550 (Bioorg Med Chem Lett, 2011)

Assay: physchem
Settings: octanol/water

Row | SMILES | logD
1 | Cc1cc(-c2ccc3cc(CCN4CCC[C@H]4C)ccc3n2)nc(-c2ccccc2)n1 | 4.2
2 | COc1ncc(-c2ccc3cc(CCN4CCC[C@H]4C)ccc3n2)cn1 | 2.4
3 | C[C@@H]1CCCN1CCc1ccc2nc(-c3ccccn3)ccc2c1 | 2.9
4 | Cc1nc(-c2cccnc2)sc1-c1ccc2cc(CCN3CCC[C@H]3C)ccc2n1 | 3.5
5 | Cc1nc(C)c(-c2ccc3cc(CCN4CCC[C@H]4C)ccc3n2)o1 | 2.4
6 | C[C@@H]1CCCN1CCc1ccc2nc(-c3ccc4nccnc4c3)ccc2c1 | 3.1
7 | C[C@@H]1CCCN1CCc1ccc2nc(-c3ccc4c(c3)COCO4)ccc2c1 | 3.2
8 | C[C@@H]1CCCN1CCc1ccc2nc(-c3nc4ccccc4s3)ccc2c1 | 4.1
9 | Cc1[nH]ncc1-c1ccc2cc(CCN3CCC[C@H]3C)ccc2n1 | 2.4
10 | Cc1c(-c2ccc3cc(CCN4CCC[C@H]4C)ccc3n2)sc2ncnn12 | 2.8
11 | C[C@@H]1CCCN1CCc1ccc2nc(-c3cn4c(n3)SCC4)ccc2c1 | 3.1
12 | Cc1nc2ccccn2c1-c1ccc2cc(CCN3CCC[C@H]3C)ccc2n1 | 3.2
13 | C[C@@H]1CCCN1CCc1ccc2nc(-c3ccn[nH]3)ccc2c1 | 2.4
14 | C[C@@H]1CCCN1CCc1ccc2nc(-c3cn[nH]c3)ccc2c1 | 2.1
15 | C[C@@H]1CCCN1CCc1ccc2nc(-c3ccn4ncnc4n3)ccc2c1 | 2.5
16 | Cc1n[nH]c(C)c1-c1ccc2cc(CCN3CCC[C@H]3C)ccc2n1 | 2.5
17 | Cc1c(-c2ccc3cc(CCN4CCC[C@H]4C)ccc3n2)cnn1C | 2.5
18 | Cc1c(-c2ccc3cc(CCN4CCC[C@H]4C)ccc3n2)sc2nc3ccccc3n12 | 4.5
19 | C[C@@H]1CCCN1CCc1ccc2nc(-c3ccc(N4CCCCC4)cc3)ccc2c1 | 3.1
20 | CC1CCN(c2ccc3cc(CCN4CCC[C@H]4C)ccc3n2)CC1 | 2.9
21 | Cc1onc(-c2ccc(Cl)cc2)c1-c1ccc2cc(CCN3CCC[C@H]3C)ccc2n1 | 4.9
22 | C[C@@H]1CCCN1CCc1ccc2nc(-c3c(-c4ccccc4)nn(C)c3Cl)ccc2c1 | 4.7
23 | Cc1onc(-c2ccccc2)c1-c1ccc2cc(CCN3CCC[C@H]3C)ccc2n1 | 4.2
24 | Cc1nc(-c2cnccn2)sc1-c1ccc2cc(CCN3CCC[C@H]3C)ccc2n1 | 2.7
25 | Cc1c(-c2ccc(Cl)cc2)noc1-c1ccc2cc(CCN3CCC[C@H]3C)ccc2n1 | 5.5
26 | C[C@@H]1CCCN1CCc1ccc2nc(-c3cncnc3)ccc2c1 | 1.9

Row | SMILES | logD
27 | Cc1nc(-c2ccncc2)sc1-c1ccc2cc(CCN3CCC[C@H]3C)ccc2n1 | 3.5
28 | Cc1nc(-c2ccccn2)sc1-c1ccc2cc(CCN3CCC[C@H]3C)ccc2n1 | 3.9
29 | Cc1nc(-c2nc(-c3ccc4cc(CCN5CCC[C@H]5C)ccc4n3)cs2)cs1 | 3.6
30 | Cc1cc(-c2nc(-c3ccc4cc(CCN5CCC[C@H]5C)ccc4n3)cs2)no1 | 3.5
31 | C[C@@H]1CCCN1CCc1ccc2nc(-c3cnc4c(c3)OCO4)ccc2c1 | 2.8
32 | Cc1nc(-c2cccs2)sc1-c1ccc2cc(CCN3CCC[C@H]3C)ccc2n1 | 4.6
33 | C[C@@H]1CCCN1CCc1ccc2nc(-c3ccc(C#N)s3)ccc2c1 | 3.8
34 | C[C@@H]1CCCN1CCc1ccc2nc(-c3cnc(-c4ccccc4)s3)ccc2c1 | 4.3
35 | C[C@@H]1CCCN1CCc1ccc2nc(-c3ccc(-n4ccc(=O)cc4)cc3)ccc2c1 | 3.4
36 | C[C@@H]1CCCN1CCc1ccc2nc(-c3cc(Br)no3)ccc2c1 | 3.4
37 | CCOC(=N)c1ccc(-c2ccc3cc(CCN4CCC[C@H]4C)ccc3n2)s1 | 4.1
38 | COC(=O)c1c(C)noc1-c1ccc2cc(CCN3CCC[C@H]3C)ccc2n1 | 2.5
39 | COC(=O)c1cc(-c2ccc3cc(CCN4CCC[C@H]4C)ccc3n2)on1 | 2.7
40 | CC1CCCN1CCc1ccc2nc(-c3ccoc3)ccc2c1 (configuration not stated) | 2.7
41 | CC1CCCN1CCc1ccc2nc(-c3ccsc3)ccc2c1 (configuration not stated) | 3.3
42 | CC1CCCN1CCc1ccc2nc(-c3cccs3)ccc2c1 (configuration not stated) | 3.6
43 | O=C(C1CC(Oc2cccc(F)c2)CN1)N1CCCN(C2CCC2)CC1 (configuration not stated) | 0.2
44 | O=C(C1CC(Oc2cccc(Cl)c2)CN1)N1CCCN(C2CCC2)CC1 (configuration not stated) | 0.6
45 | O=C(C1CC(Oc2ccc(F)cc2)CN1)N1CCCN(C2CCC2)CC1 (configuration not stated) | 0.2
46 | O=C(C1CC(Oc2ccc(Cl)cc2)CN1)N1CCCN(C2CCC2)CC1 (configuration not stated) | 0.6
47 | N#Cc1ccc(OC2CNC(C(=O)N3CCCN(C4CCC4)CC3)C2)cc1 (configuration not stated) | -0.2
48 | N#Cc1ccc(OC2CNC(C(=O)N3CCCN(C4CCCC4)CC3)C2)cc1 (configuration not stated) | 0.6
49 | O=C(C1CC(Oc2ccc(F)cc2)CN1)N1CCCN(C2CCCC2)CC1 (configuration not stated) | 0.9
50 | COC(=O)N1CC(Oc2cccc(F)c2)CC1C(=O)N1CCCN(C2CCC2)CC1 (configuration not stated) | 1.8
51 | COC(=O)N1CC(Oc2ccc(F)cc2)CC1C(=O)N1CCCN(C2CCC2)CC1 (configuration not stated) | 1.8
52 | CCCNS(=O)(=O)c1ccc(-c2ccc(CCN3CCC[C@H]3C)cc2)cc1 | 2.8

Row | SMILES | logD
53 | CCC(CO)NS(=O)(=O)c1ccc(-c2ccc(CCN3CCC[C@H]3C)cc2)cc1 (some centres not stated) | 2.3
54 | C[C@@H]1CCCN1CCc1ccc(-c2ccc(S(=O)(=O)N3CCC(O)C3)cc2)cc1 (some centres not stated) | 1.5
55 | COCC1CCCN1S(=O)(=O)c1ccc(-c2ccc(CCN3CCC[C@H]3C)cc2)cc1 (some centres not stated) | 2.5
56 | Cc1nc(N2CCCC2)ncc1-c1ccc2cc(CCN3CCC[C@H]3C)ccc2n1 | 2.7
57 | Cc1nc2ncccc2cc1-c1ccc2cc(CCN3CCC[C@H]3C)ccc2n1 | 3.1
58 | Cc1cc2ncc(-c3ccc4cc(CCN5CCC[C@H]5C)ccc4n3)c(C)n2n1 | 2.5
59 | Cc1nn(C)cc1-c1ccc2cc(CCN3CCC[C@H]3C)ccc2n1 | 2.6
60 | COCCNS(=O)(=O)c1ccc(-c2ccc(CCN3CCC[C@H]3C)cc2)cc1 | 1.8
61 | C[C@@H]1CCCN1CCc1ccc(-c2ccc(S(=O)(=O)Nc3ccccc3)cc2)cc1 | 3.5
62 | COC1CCN(S(=O)(=O)c2ccc(-c3ccc(CCN4CCC[C@H]4C)cc3)cc2)CC1 | 2
63 | C[C@@H]1CCCN1CCc1ccc(-c2ccc(S(=O)(=O)NCC3CC3)cc2)cc1 | 2.8
64 | C[C@@H]1CCCN1CCc1ccc(-c2ccc(S(=O)(=O)NCc3ccccc3)cc2)cc1 | 3.6
65 | C[C@@H]1CCCN1CCc1ccc(-c2ccc(S(=O)(=O)NCc3ccncc3)cc2)cc1 | 2.4
66 | C[C@@H]1CCCN1CCc1ccc(-c2ccc(S(N)(=O)=O)cc2)cc1 | 1.8
67 | C[C@@H]1CCCN1CCc1ccc(-c2ccc(S(=O)(=O)NC3CCOCC3)cc2)cc1 | 1.8
68 | C[C@@H]1CCCN1CCc1ccc(-c2ccc(S(=O)(=O)N3CCS(=O)(=O)CC3)cc2)cc1 | 1.6
69 | CC1COCC(C)N1S(=O)(=O)c1ccc(-c2ccc(CCN3CCC[C@H]3C)cc2)cc1 (some centres not stated) | 2.6
70 | C[C@@H]1CCCN1CCc1ccc(-c2ccc(S(=O)(=O)N3CCCCC3)cc2)cc1 | 3.1
71 | C[C@@H]1CCCN1CCc1ccc(-c2ccc(S(=O)(=O)NC3CCC3)cc2)cc1 | 2.9
72 | C[C@@H]1CCCN1CCc1ccc(-c2ccc(S(=O)(=O)N3CCOCC3)cc2)cc1 | 1.9
73 | CCNS(=O)(=O)c1ccc(-c2ccc(CCN3CCC[C@H]3C)cc2)cc1 | 2.3
74 | Fc1ccc(-c2cnc3nc(N4CCC(N5CCCCC5)CC4)sc3c2)cn1 | 1.5
75 | Clc1cc2sc(N3CCC(N4CCCCC4)CC3)nc2cn1 | 1.2
76 | Fc1ncccc1-c1cnc2nc(N3CCC(N4CCCCC4)CC3)sc2c1 | 1.5
77 | N#Cc1cc(-c2cnc3nc(N4CCC(N5CCCCC5)CC4)sc3c2)ccc1F | 2.1
